# Laboratory results reported in ChEMBL document CHEMBL3797055, “Glabridin-chalcone hybrid molecules: drug resistance reversal agent against clinical isolates of methicillin-resistant Staphylococcus aureus” (Medchemcomm, 2016).
# Tests used:
# Staphylococcus aureus [1] = assay: Antibacterial activity against clinical isolates of methicillin-resistant Staphylococcus aureus P4423 by checkerboard assay in presence of norfloxacin; format: functional
# Staphylococcus aureus [2] = assay: Potentiation of norfloxacin-induced antibacterial activity against clinical isolates of methicillin-resistant Staphylococcus aureus P4650 assessed as reduction in norfloxacin MIC by checkerboard assay relative to control; format: functional
# Staphylococcus aureus [3] = assay: Potentiation of norfloxacin-induced antibacterial activity against clinical isolates of methicillin-resistant Staphylococcus aureus ST10342 assessed as reduction in norfloxacin MIC by checkerboard assay relative to control; format: functional
# Staphylococcus aureus [4] = assay: Antibacterial activity against clinical isolates of methicillin-resistant Staphylococcus aureus P4423 by broth microdilution assay; format: functional
# Staphylococcus aureus [5] = assay: Antibacterial activity against clinical isolates of methicillin-resistant Staphylococcus aureus ST10760 by checkerboard assay in presence of norfloxacin; format: functional
# Staphylococcus aureus [6] = assay: Ratio of MIC for clinical isolates of methicillin-resistant Staphylococcus aureus P4629 to MIC for clinical isolates of methicillin-resistant Staphylococcus aureus P4629 in presence of norfloxacin; format: functional
# Staphylococcus aureus [7] = assay: Ratio of MIC for clinical isolates of methicillin-resistant Staphylococcus aureus ST10342 to MIC for clinical isolates of methicillin-resistant Staphylococcus aureus ST10342 in presence of norfloxacin; format: functional
# Staphylococcus aureus [8] = assay: Bactericidal activity against clinical isolates of methicillin-resistant Staphylococcus aureus ST2071 assessed as reduction in viability at 0.5 MIC after 24 hrs by time kill kinetic analysis relative to control; format: functional
# Staphylococcus aureus [9] = assay: Bactericidal activity against clinical isolates of methicillin-resistant Staphylococcus aureus ST2071 assessed as reduction in viability at MIC after 24 hrs by time kill kinetic analysis relative to control; format: functional
# Staphylococcus aureus [10] = assay: Antibacterial activity against clinical isolates of methicillin-resistant Staphylococcus aureus P4629 by checkerboard assay in presence of norfloxacin; format: functional
# Staphylococcus aureus [11] = assay: Potentiation of norfloxacin-induced antibacterial activity against clinical isolates of methicillin-resistant Staphylococcus aureus P4650 assessed as norfloxacin MIC by checkerboard assay; format: functional
# Staphylococcus aureus [12] = assay: Potentiation of norfloxacin-induced antibacterial activity against clinical isolates of methicillin-resistant Staphylococcus aureus P4423 assessed as norfloxacin MIC by checkerboard assay; format: functional
# Staphylococcus aureus [13] = assay: Antibacterial activity against clinical isolates of methicillin-resistant Staphylococcus aureus ST2071 by checkerboard assay in presence of norfloxacin; format: functional
# Staphylococcus aureus [14] = assay: Antibacterial activity against clinical isolates of methicillin-resistant Staphylococcus aureus ST10342 by broth microdilution assay; format: functional
# Staphylococcus aureus [15] = assay: Antibacterial activity against clinical isolates of methicillin-resistant Staphylococcus aureus P4650 by broth microdilution assay; format: functional
# Staphylococcus aureus [16] = assay: Ratio of MIC for clinical isolates of methicillin-resistant Staphylococcus aureus ST2071 to MIC for clinical isolates of methicillin-resistant Staphylococcus aureus ST2071 in presence of norfloxacin; format: functional
# Staphylococcus aureus [17] = assay: Antibacterial activity against clinical isolates of methicillin-resistant Staphylococcus aureus P4629 by broth microdilution assay; format: functional
# Staphylococcus aureus [18] = assay: Potentiation of norfloxacin-induced antibacterial activity against clinical isolates of methicillin-resistant Staphylococcus aureus P4423 assessed as reduction in norfloxacin MIC by checkerboard assay relative to control; format: functional
# Staphylococcus aureus [19] = assay: Antibacterial activity against clinical isolates of methicillin-resistant Staphylococcus aureus ST10760 by broth microdilution assay; format: functional
# Staphylococcus aureus [20] = assay: Antibacterial activity against clinical isolates of methicillin-resistant Staphylococcus aureus P4650 by checkerboard assay in presence of norfloxacin; format: functional
# Staphylococcus aureus [21] = assay: Potentiation of norfloxacin-induced antibacterial activity against clinical isolates of methicillin-resistant Staphylococcus aureus ST2071 assessed as norfloxacin MIC by checkerboard assay; format: functional
# Staphylococcus aureus [22] = assay: Antibacterial activity against Staphylococcus aureus MTCC 96 by broth microdilution assay; format: functional
# Staphylococcus aureus [23] = assay: Ratio of MIC for clinical isolates of methicillin-resistant Staphylococcus aureus P4650 to MIC for clinical isolates of methicillin-resistant Staphylococcus aureus P4650 in presence of norfloxacin; format: functional
# Staphylococcus aureus [24] = assay: Potentiation of norfloxacin-induced antibacterial activity against clinical isolates of methicillin-resistant Staphylococcus aureus ST10760 assessed as norfloxacin MIC by checkerboard assay; format: functional
# Staphylococcus aureus [25] = assay: Potentiation of norfloxacin-induced antibacterial activity against clinical isolates of methicillin-resistant Staphylococcus aureus ST2071 assessed as reduction in norfloxacin MIC by checkerboard assay relative to control; format: functional
# Staphylococcus aureus [26] = assay: Potentiation of norfloxacin-induced antibacterial activity against clinical isolates of methicillin-resistant Staphylococcus aureus P4629 assessed as reduction in norfloxacin MIC by checkerboard assay relative to control; format: functional
# Staphylococcus aureus [27] = assay: Potentiation of norfloxacin-induced antibacterial activity against clinical isolates of methicillin-resistant Staphylococcus aureus ST10760 assessed as reduction in norfloxacin MIC by checkerboard assay relative to control; format: functional
# Staphylococcus aureus [28] = assay: Antibacterial activity against clinical isolates of methicillin-resistant Staphylococcus aureus ST2071 by broth microdilution assay; format: functional
# Staphylococcus aureus [29] = assay: Potentiation of norfloxacin-induced antibacterial activity against clinical isolates of methicillin-resistant Staphylococcus aureus P4629 assessed as norfloxacin MIC by checkerboard assay; format: functional
# Staphylococcus aureus [30] = assay: Bactericidal activity against clinical isolates of methicillin-resistant Staphylococcus aureus ST2071 assessed as reduction in viability at 0.5 MIC after 24 hrs by time kill kinetic analysis in presence of norfloxacin relative to control; format: functional
# Staphylococcus aureus [31] = assay: Antibacterial activity against clinical isolates of methicillin-resistant Staphylococcus aureus ST10342 by checkerboard assay in presence of norfloxacin; format: functional
# Staphylococcus aureus [32] = assay: Potentiation of norfloxacin-induced antibacterial activity against clinical isolates of methicillin-resistant Staphylococcus aureus ST10342 assessed as norfloxacin MIC by checkerboard assay; format: functional
# Staphylococcus aureus [33] = assay: Ratio of MIC for clinical isolates of methicillin-resistant Staphylococcus aureus ST10760 to MIC for clinical isolates of methicillin-resistant Staphylococcus aureus ST10760 in presence of norfloxacin; format: functional
# Mus musculus [34] = assay: Toxicity in Swiss mouse infected with Staphylococcus aureus MTCC 96 assessed as morbidity at 12.5 to 100 mg/kg, ip qd for 7 days post infection; format: organism-based; conditions: in vivo, 168 h
# Staphylococcus aureus [35] = assay: Antibacterial activity against Staphylococcus aureus MTCC 96 infected in ip dosed Swiss mouse assessed as reduction in bacterial load in kidney administered qd for 7 days post infection measured 24 hrs after last dose by plate counting analysis; format: functional, organism-based
# Staphylococcus aureus [36] = assay: Antibacterial activity against Staphylococcus aureus MTCC 96 infected in ip dosed Swiss mouse assessed as reduction in bacterial load in liver administered qd for 7 days post infection measured 24 hrs after last dose by plate counting analysis; format: functional, organism-based
# Staphylococcus aureus [37] = assay: Antibacterial activity against Staphylococcus aureus MTCC 96 infected in ip dosed Swiss mouse assessed as reduction in bacterial load in blood administered qd for 7 days post infection measured 24 hrs after last dose by plate counting analysis; format: functional, organism-based
# Staphylococcus aureus [38] = assay: Antibacterial activity against Staphylococcus aureus MTCC 96 infected in ip dosed Swiss mouse assessed as reduction in bacterial load in lung administered qd for 7 days post infection measured 24 hrs after last dose by plate counting analysis; format: functional, organism-based
# Mus musculus [39] = assay: Toxicity in Swiss mouse infected with Staphylococcus aureus MTCC 96 assessed as mortality at 12.5 to 100 mg/kg, ip qd for 7 days post infection; format: organism-based; conditions: in vivo, 168 h
# Staphylococcus aureus [40] = assay: Antibacterial activity against Staphylococcus aureus MTCC 96 infected in ip dosed Swiss mouse assessed as reduction in bacterial load in spleen administered qd for 7 days post infection measured 24 hrs after last dose by plate counting analysis; format: functional, organism-based
# Staphylococcus aureus [41] = assay: Ratio of MIC for clinical isolates of methicillin-resistant Staphylococcus aureus P4423 to MIC for clinical isolates of methicillin-resistant Staphylococcus aureus P4423 in presence of norfloxacin; format: functional
smiles,measurement,setting,value
COc1ccc([C@@H]2COc3c(cc(/C=C/C(=O)c4ccc(OC)c(OC)c4)c4c3C=CC(C)(C)O4)C2)c(OC)c1,fractional inhibitory concentration index (FICI),Staphylococcus aureus [1],0.75
same,fold change (FC),Staphylococcus aureus [2],4
same,fold change (FC),Staphylococcus aureus [3],8
same,MIC,Staphylococcus aureus [4],50 µg/mL
same,fractional inhibitory concentration index (FICI),Staphylococcus aureus [5],0.75
same,Ratio,Staphylococcus aureus [6],<=4
same,Ratio,Staphylococcus aureus [7],<=4
same,fold change (FC),Staphylococcus aureus [8],<=1.52
same,fold change (FC),Staphylococcus aureus [9],2
same,fractional inhibitory concentration index (FICI),Staphylococcus aureus [10],0.375
same,MIC,Staphylococcus aureus [11],62.5 µg/mL
same,MIC,Staphylococcus aureus [12],62.5 µg/mL
same,fractional inhibitory concentration index (FICI),Staphylococcus aureus [13],0.5
same,MIC,Staphylococcus aureus [14],50 µg/mL
same,MIC,Staphylococcus aureus [15],50 µg/mL
same,Ratio,Staphylococcus aureus [16],<=4
same,MIC,Staphylococcus aureus [17],50 µg/mL
same,fold change (FC),Staphylococcus aureus [18],4
same,MIC,Staphylococcus aureus [19],50 µg/mL
same,fractional inhibitory concentration index (FICI),Staphylococcus aureus [20],0.5
same,MIC,Staphylococcus aureus [21],125 µg/mL
same,MIC,Staphylococcus aureus [22],25 µg/mL
same,Ratio,Staphylococcus aureus [23],<=4
same,MIC,Staphylococcus aureus [24],125 µg/mL
same,fold change (FC),Staphylococcus aureus [25],4
same,fold change (FC),Staphylococcus aureus [26],8
same,fold change (FC),Staphylococcus aureus [27],4
same,MIC,Staphylococcus aureus [28],50 µg/mL
same,MIC,Staphylococcus aureus [29],62.5 µg/mL
same,fold change (FC),Staphylococcus aureus [30],<=4
same,fractional inhibitory concentration index (FICI),Staphylococcus aureus [31],0.375
same,MIC,Staphylococcus aureus [32],31.2 µg/mL
COc1cc(OC)c([C@@H]2COc3c(cc(/C=C/C(=O)c4ccco4)c4c3C=CC(C)(C)O4)C2)cc1/C=C/C(=O)c1ccco1,fractional inhibitory concentration index (FICI),Staphylococcus aureus [1],0.375
same,Ratio,Staphylococcus aureus [33],<=4
same,fold change (FC),Staphylococcus aureus [2],8
same,fold change (FC),Staphylococcus aureus [3],8
same,MIC,Staphylococcus aureus [4],50 µg/mL
same,fractional inhibitory concentration index (FICI),Staphylococcus aureus [5],0.375
same,Ratio,Staphylococcus aureus [6],<=4
same,Ratio,Staphylococcus aureus [7],<=4
same,fold change (FC),Staphylococcus aureus [8],<=1.52
same,fold change (FC),Staphylococcus aureus [9],2
same,Activity,Mus musculus [34],Non-toxic
same,fractional inhibitory concentration index (FICI),Staphylococcus aureus [10],0.312
same,MIC,Staphylococcus aureus [11],31.2 µg/mL
same,MIC,Staphylococcus aureus [12],31.2 µg/mL
same,fractional inhibitory concentration index (FICI),Staphylococcus aureus [13],0.312
same,MIC,Staphylococcus aureus [14],50 µg/mL
same,MIC,Staphylococcus aureus [15],25 µg/mL
same,Ratio,Staphylococcus aureus [16],<=4
same,MIC,Staphylococcus aureus [17],25 µg/mL
same,fold change (FC),Staphylococcus aureus [18],8
same,Activity,Staphylococcus aureus [35],Dose-dependent effect
same,MIC,Staphylococcus aureus [19],50 µg/mL
same,Activity,Staphylococcus aureus [36],Dose-dependent effect
same,fractional inhibitory concentration index (FICI),Staphylococcus aureus [20],0.375
same,Activity,Staphylococcus aureus [37],Dose-dependent effect
same,MIC,Staphylococcus aureus [21],31.2 µg/mL
same,MIC,Staphylococcus aureus [22],25 µg/mL
same,Ratio,Staphylococcus aureus [23],<=4
same,MIC,Staphylococcus aureus [24],62.5 µg/mL
same,fold change (FC),Staphylococcus aureus [25],16
same,fold change (FC),Staphylococcus aureus [26],16
same,fold change (FC),Staphylococcus aureus [27],8
same,MIC,Staphylococcus aureus [28],50 µg/mL
same,MIC,Staphylococcus aureus [29],31.2 µg/mL
same,fold change (FC),Staphylococcus aureus [30],<16
same,Activity,Staphylococcus aureus [38],Dose-dependent effect
same,Activity,Mus musculus [39],Non-toxic
same,Activity,Staphylococcus aureus [40],Dose-dependent effect
same,fractional inhibitory concentration index (FICI),Staphylococcus aureus [31],0.375
same,Ratio,Staphylococcus aureus [41],<=4
same,MIC,Staphylococcus aureus [32],31.2 µg/mL
